Earlier results, collected in patent US20230255250A1, “COMPOSITION FOR NUTRITIONAL SUPPLEMENTATION THAT PREVENTS DAMAGE CAUSED BY OXIDATIVE STRESS, HAVING AS PRINCIPLES XANTHOPHYLLS FROM MICROALGAE” (priority 2022, published 2023).

Assays:
[1] = doses less than 500 mg/kg intravenously
[2] = water at room temperature

2-Hydroxylpropyl-beta-cyclodextrin [HP-β-CD]
toxicity [1]: not toxic
proliferation and activation of T lymphocytes (T lymphocytes): induces proliferation and activation
regulation of molecules such as MHC proteins, and of PD-L1/L2 (dendritic cells; HP-β-CD stimulated dendritic cells): remarkable regulation
production of IL-6 (dendritic cells; treated with HP-β-CD): increased
production of IL-10 (dendritic cells; treated with HP-β-CD): increased
production of TNF-α (dendritic cells; treated with HP-β-CD): increased
solubility in water [2]: greater than 500 mg/mL
